From ChEMBL document CHEMBL1138285, “Structure-activity relationships of adenosines with heterocyclic N6-substituents” (Bioorg Med Chem Lett, 2007)

Assays:
[1] = target: Adenosine receptor A2a (Rattus norvegicus) (UniProt P30543); assay: Displacement of [3H]ZM-241385 from adenosine A2A receptor expressed in PC12 cell membrane
[2] = test system: Adenosine receptor A1 (Mesocricetus auratus); assay: Intrinsic activity at adenosine A1 receptor expressed in DDT1 MF2 cells assessed as maximal inhibition of (-)-isoproterenol-stimulated cAMP accumulation
Homo sapiens = organism: Homo sapiens; assay: Selectivity for adenosine A1 receptor over adenosine A2A receptor

Sequence of Adenosine receptor A2a (Rattus norvegicus) (P30543 whole entry, looked up): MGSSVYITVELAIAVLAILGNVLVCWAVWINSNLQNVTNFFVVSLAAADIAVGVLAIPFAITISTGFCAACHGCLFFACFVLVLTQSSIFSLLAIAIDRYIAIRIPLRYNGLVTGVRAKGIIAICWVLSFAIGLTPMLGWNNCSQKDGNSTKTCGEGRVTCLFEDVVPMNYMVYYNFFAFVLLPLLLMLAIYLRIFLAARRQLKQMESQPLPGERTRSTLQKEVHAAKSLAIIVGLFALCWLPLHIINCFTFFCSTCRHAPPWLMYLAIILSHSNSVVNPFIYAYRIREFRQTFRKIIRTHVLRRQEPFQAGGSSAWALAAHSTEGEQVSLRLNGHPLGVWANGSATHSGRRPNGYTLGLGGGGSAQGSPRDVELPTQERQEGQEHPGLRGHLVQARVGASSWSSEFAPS

Ki [1] [µM]	Intrinsic activity [2]	Ratio Ki (Homo sapiens)	SMILES
> 100			O=C(OCc1ccccc1)N1[C@H]2CC[C@H]1[C@H](Nc1ncnc3c1ncn3[C@@H]1O[C@H](CO)[C@@H](O)[C@H]1O)C2
> 100			OC[C@H]1O[C@@H](n2cnc3c(N[C@@H]4CCOC4)ncnc32)[C@H](O)[C@@H]1O [TECADENOSON]
> 100			CC(=O)N1CC[C@@H](Nc2ncnc3c2ncn3[C@@H]2O[C@H](CO)[C@@H](O)[C@H]2O)C1
34.7	1.01		CC(C)(C)OC(=O)N1[C@H]2CC[C@H]1[C@H](Nc1ncnc3c1ncn3[C@@H]1O[C@H](CO)[C@@H](O)[C@H]1O)C2
> 100	0.97		O=C(OCc1ccccc1Br)N1[C@H]2CC[C@H]1[C@H](Nc1ncnc3c1ncn3[C@@H]1O[C@H](CO)[C@@H](O)[C@H]1O)C2
9.7			OC[C@H]1O[C@@H](n2cnc3c(N[C@@H]4CCSC4)ncnc32)[C@H](O)[C@@H]1O
> 100	0.99	> 4700	CC(C)(C)OC(=O)N1CC[C@@H](Nc2ncnc3c2ncn3[C@@H]2O[C@H](CO)[C@@H](O)[C@H]2O)C1
> 100			O=C(OCc1ccccc1Cl)N1[C@H]2CC[C@H]1[C@H](Nc1ncnc3c1ncn3[C@@H]1O[C@H](CO)[C@@H](O)[C@H]1O)C2
> 100			O=C(OCc1ccccc1)N1CC[C@@H](Nc2ncnc3c2ncn3[C@@H]2O[C@H](CO)[C@@H](O)[C@H]2O)C1

SMILES	Ki [1] [µM]	Intrinsic activity [2]	Ratio Ki (Homo sapiens)
OC[C@H]1O[C@@H](n2cnc3c(N[C@@H]4CC[Se]C4)ncnc32)[C@H](O)[C@@H]1O	5.5		
OC[C@H]1O[C@@H](n2cnc3c(NC4CC5CCC4N5)ncnc32)[C@H](O)[C@@H]1O (stereo not given in full)	7.8		
